In patent US9283209B2, “Oral formulations of deferasirox” (NOVARTIS AG, priority 2013, dated 2016):
≈ marks a conversion by molar mass, not a printed value. Where two headings read alike, the source gives them in different places.

Key:
[1] = Exjade (deferasirox) solubility profile at 37 C; type: physicochemical
Source text: Due to the poor solubility of Exjade™ (deferasirox), a high dose is required to achieve the desired therapeutic effect, which results in unwanted side effects, such as gastrointestinal (GI) irritation and kidney toxicity. […] To meet the high dose requirement and reduce pill burden Exjade™ (deferasirox) was developed as dispersible tablets with about 29.4% drug load. The disadvantage of this type of formulation is that the tablets have to be dispersed in water or appropriate liquid, such as in orange juice or apple juice and stirred until a fine suspension is obtained prior to administration. Further, the dispersible tablets have to be taken at least 30 minutes before food.

[2] = Study 2209: one year study in NTDT patients, GI adverse event rates; type: in vivo, human; details: 10 mg/kg
Source text: The new Exjade formulations represent a significant improvement in patient care and support compliance with chelation therapy because of the improved pharmaceutical properties and because of the changes in composition. […] Exjade currently also contains lactose and so is not recommended in patients with rare hereditary problems of galactose intolerance, the Lapp lactase deficiency, glucose-galactose malabsorption or severe lactase deficiency. Novartis believes the exclusion of lactose and sodium lauryl sulfate in the new formulations will improve the gastrointestinal tolerability of the product.

[3] = Thorough QT healthy volunteer study; type: in vivo, human; details: human, in vivo, oral, 40 mg/kg, 40 mg/kg immediately after a high-fat breakfast, 44 healthy volunteers
Procedure: (§1) Therefore, patients would only be exposed to the highest approved dose (40 mg/kg/day for the current formulation) after an extended period of up-titration with confirmed tolerability • the absence of a significant food effect results in a lower risk of increased exposure when the drug is taken with a meal.
(§2) Deferasirox Cmax values in healthy volunteers are generally higher than in patients. Two healthy volunteer studies in the initial registration package in 2005 were therefore reviewed for potential Cmax-related adverse events.

[4] = tested on: QT interval; assay: Thorough QT healthy volunteer study; type: in vivo, human
Procedure: as §1, §2

[5] = Randomized crossover bioequivalence study, Exjade dispersed in fruit juice or water; type: in vivo, human; details: single 20 mg/kg dose, 28 healthy volunteers, 2.5 to 5 hours after intake
Source text: as §2

[6] = tested on: serum creatinine, creatinine clearance; details: human, in vivo
Procedure: In addition, a new analysis of creatinine and creatinine clearance changes was performed to explore whether deferasirox-associated renal changes are a function of peak exposure (Cmax) or of overall exposure (AUC). The analysis used data from the large multicenter study 7, in which Ctrough (a proxy of AUC) and deferasirox C2h (a proxy of Cmax) was collected at multiple time points.
Based on study 7 data, the relationship between PK parameters at steady state (Ctrough and C2h) and serum creatinine was investigated by using a linear mixed model of log-transformed creatinine values (1990 observations at week 12 and 28) with patient included in model as a random effect. After log-transformation, baseline creatinine levels, C2h and Ctrough were included as predictors in the model.

[7] = Patient study A0105F: Exjade after high-fat breakfast; type: in vivo, human; details: patients
Procedure: as §1

[8] = 40 mg/kg after high-fat breakfast, 44 volunteers

solubility ([1]; aqueous buffer, pH 3, 37 C): < 10 µg/mL | solubility ([1]; aqueous buffer, pH 4, 37 C): < 10 µg/mL | solubility ([1]; aqueous buffer, pH 5, 37 C): < 10 µg/mL | solubility ([1]; aqueous buffer, pH 7.5, 37 C): 167 µg/mL (≈ 447 µM) | solubility ([1]; simulated gastric fluid, pH 1, 37 C): < 10 µg/mL | solubility ([1]; simulated gastric fluid, pH 2, 37 C): < 10 µg/mL | solubility ([1]; water, 37 C): 20 µg/mL (≈ 53.6 µM) | HV subjects reporting loose stools [5]: three | Estimate, Log (C2h) [6]: 0.03287 | Estimate, Log (Ctrough) [6]: 0.06504 | Estimate, Log (baseline creatinine) [6]: 0.9593 | Estimate, Log(C2h) [6]: −0.00203 | Estimate, Log(Ctrough) [6]: 0.9346 | Estimate, Log(baseline creatinine clearance) [6]: −10.3474 | OR for a 2-fold increase in PK parameter, Log(C2h) [6]: 0.999 | OR for a 2-fold increase in PK parameter, Log(Ctrough) [6]: 1.911 | OR for a 30% increase in PK parameter, Log(Ctrough) [6]: 1.278 | Slope of linear regression between Day 1 C2h and percent change in serum creatinine at week 4 [6]: 0.03 (−0.01, 0.08) | Change in exposure after a high-fat breakfast [7]: nearly doubled
Compound: O=C(O)c1ccc(-n2nc(-c3ccccc3O)nc2-c2ccccc2O)cc1 [deferasirox]
GI adverse event rate [2]: 36.4% | Cmax ([3]; read-out: Cmax (average)): 256 µM | Cmax ([3]; read-out: Cmax (range)): 134 to 472 µM | GI symptoms (diarrhea/loose stools, flatulence, and nausea) [4, 8]: 18% | Headache and dizziness, one patient each [4, 8]: 2% | Effect on the QT interval ([4]; healthy volunteers, doses up to 40 mg/kg): no effect
